Experimental data published in the OligoGym collection.
Where “and” joins values, the source holds several entries; their conditions need not be identical. Identical values can stand only once. After the bases stand the sugars from the 5' end (letter, count) and the backbone: PS all phosphorothioate, else s phosphorothioate and o phosphodiester by linkage. Methylation of C is not given here. e = 2'-O-(2-methoxyethyl) (MOE); k = constrained ethyl (cEt); d = 2'-deoxy (DNA)

Target: IRF4
Conditions: ASO, MM.1R, 0.0625 µM

| Sequence | target mRNA inhibition |
| --- | --- |
| TTTCATATTTGGAGCC (sugars k3 d10 k3, PS) | -3% and 21% |

Same assay, conditions: ASO, MM.1R, 0.25 µM

| Sequence | target mRNA inhibition |
| --- | --- |
| TTTCATATTTGGAGCC (sugars k3 d10 k3, PS) | 10% and 18% |

Same assay, conditions: ASO, MM.1R, 1 µM

| Sequence | target mRNA inhibition |
| --- | --- |
| TTATATACTGGTTGGT (sugars kkdddddddddkdkdk, PS) | 18% |
| TTATGCCATGGACAAG (sugars k3 d10 k3, PS) | 19% |
| TTATGTTAGCCAATTC (sugars kddddddddddkekek, PS) | 2% and 6% |
| TTATGTTAGCCAATTC (sugars kkddddddddddkeke, PS) | 11% and 16% |
| TTATGTTAGCCAATTC (sugars kkdddddddddekeke, PS) | 9% and 8% |
| TTATGTTAGCCAATTC (sugars kkdddddddddkdkdk, PS) | 17% and 26% |
| TTCATGTAAAGTCTGC (sugars kkddddddddddkeke, PS) | 49% and 28% |
| TTCGAGAGAAATATAC (sugars k3 d10 k3, PS) | 22% |
| TTCTAGCTAACTTACA (sugars k3 d10 k3, PS) | -18% |
| TTGATGTGATAGCTGA (sugars k2 d9 e3 k2, PS) | 17% |
| TTGATGTGATAGCTGA (sugars kkdddddddddkekek, PS) | 24% |
| TTTAGTATCACCTCTA (sugars k3 d10 k3, PS) | 30% |
| TTTATGTTAGCCAATT (sugars kkdddddddddkdkdk, PS) | 11% and 34% |
| TTTATGTTAGCCAATT (sugars kkdddddddddkekek, PS) | 9% and 15% |
| TTTCATATTTGGAGCC (sugars k3 d10 k3, PS) | 25% and 45% |
| TTTGAGACTTAACCCA (sugars k3 d10 k3, PS) | 31% |
| TTTGCTTTGGGCACCA (sugars k3 d10 k3, PS) | 24% |

Same assay, conditions: ASO, MM.1R, 4 µM

| Sequence | target mRNA inhibition |
| --- | --- |
| TTTCATATTTGGAGCC (sugars k3 d10 k3, PS) | 45% and 60% |

Same assay, conditions: ASO, SK-MEL-28, 4 µM

| Sequence | target mRNA inhibition |
| --- | --- |
| TTATATATGACGACTT (sugars k3 d10 k3, PS) | 35% |
| TTCAGCAGAAAGTGGG (sugars k3 d10 k3, PS) | 48% |
| TTCAGCCACGAGGCAC (sugars k3 d10 k3, PS) | 5% |
| TTCCAACAATAGCAAC (sugars k3 d10 k3, PS) | 46% |
| TTCCACACTGGATATG (sugars k3 d10 k3, PS) | 41% |
| TTCCATAGAGCCAGAG (sugars k3 d10 k3, PS) | 37% |
| TTCCATAGATCAACAT (sugars k3 d10 k3, PS) | 44% |
| TTCCGTAGTCAGCTCC (sugars k3 d10 k3, PS) | 68% |
| TTCCTGTAACAGGCTA (sugars k3 d10 k3, PS) | 63% and 77% |
| TTCGAGGTGATTCTCG (sugars k3 d10 k3, PS) | 5% |
| TTCTAATGGTGCTCCT (sugars k3 d10 k3, PS) | 7% |
| TTCTAGGTAATCTGTA (sugars k3 d10 k3, PS) | 38% |
| TTGAAAGACTAACTGG (sugars k3 d10 k3, PS) | 20% |
| TTGAGGTTTTCCTAAA (sugars k3 d10 k3, PS) | 29% |
| TTGCAAGAGAACAGCC (sugars k3 d10 k3, PS) | 39% |
| TTGTCCTCTGGGTAGG (sugars k3 d10 k3, PS) | 30% |
| TTGTCTGGCTAGCAGA (sugars k3 d10 k3, PS) | 45% |
| TTGTTAACAATGTATC (sugars k3 d10 k3, PS) | 47% |
| TTTAAGTCATGTGTCA (sugars k3 d10 k3, PS) | 50% |
| TTTACAGCATCTAAGG (sugars k3 d10 k3, PS) | 34% |
| TTTATAGTAGGTAAGA (sugars k3 d10 k3, PS) | 6% |
| TTTATGCCCTCGCTCA (sugars k3 d10 k3, PS) | 24% |
| TTTATGCGAAGAATTT (sugars k3 d10 k3, PS) | 33% |
| TTTCACATGATAAGGC (sugars k3 d10 k3, PS) | 43% |
| TTTCATATTTGGAGCC (sugars k3 d10 k3, PS) | 75% |

Target: MALAT1
Conditions: ASO, A431, 0.005 µM

| Sequence | target mRNA inhibition |
| --- | --- |
| AAAAAGGCTCGATGGA (sugars k3 d10 k3, PS) | 52% |
| AAAACCCCCGGAACTT (sugars k3 d10 k3, PS) | 9% |
| AAAAGATCGCCTTCAA (sugars k3 d10 k3, PS) | 34% |
| AAAAGTGGTTGCCCGC (sugars k3 d10 k3, PS) | 28% |
| AAAATGGCGGACTTTC (sugars k3 d10 k3, PS) | 30% |
| AAACAACATATTGCCG (sugars k3 d10 k3, PS) | 20% |
| AAACCCCCGGAACTTT (sugars k3 d10 k3, PS) | 5% |
| AAACGAAACATTGGCA (sugars k3 d10 k3, PS) | 46% |
| AAACTAAGCTACTATA (sugars k3 d10 k3, PS) | -17% |
| AAACTTATCTGCGGTT (sugars k3 d10 k3, PS) | 19% |
| AAAGAACTAGTGGTTC (sugars k3 d10 k3, PS) | -4% |
| AAAGAGTGTTCGCAGA (sugars k3 d10 k3, PS) | 54% |
| AAAGCCCACCCTCTAA (sugars k3 d10 k3, PS) | -26% |
| AAAGGTTACCATAAGT (sugars k3 d10 k3, PS) | 5% |
| AAAGTAGTTCTTCGGT (sugars k3 d10 k3, PS) | 17% |
| AAATACTTCATTACCC (sugars k3 d10 k3, PS) | 24% |
| AAATTTCCTTAGTTGG (sugars k3 d10 k3, PS) | 54% |
| AACACCCGGAAATCGG (sugars k3 d10 k3, PS) | 26% |
| AACATCTGATTCTAAC (sugars k3 d10 k3, PS) | 27% |
| AACCAACTTCCCCTTC (sugars k3 d10 k3, PS) | 16% |
| AACCACACACTACCAT (sugars k3 d10 k3, PS) | -7% |
| AACCACTCGCTTTCCC (sugars k3 d10 k3, PS) | 41% |
| AACCCCCGGAACTTTT (sugars k3 d10 k3, PS) | 1% |

| Sequence | target mRNA inhibition |
| --- | --- |
| AACCGGAGCAGGAAGA (sugars k3 d10 k3, PS) | -16% |
| AACCTACAACACCCGG (sugars k3 d10 k3, PS) | 34% |
| AACTAAGCTACTATAT (sugars k3 d10 k3, PS) | -2% |
| AACTGATCTGACTTTG (sugars k3 d10 k3, PS) | 34% |
| AACTGGAAGCTCCTTC (sugars k3 d10 k3, PS) | 17% |
| AACTGTAAACCTGTGG (sugars k3 d10 k3, PS) | -8% |
| AACTTGCCATCTACTA (sugars k3 d10 k3, PS) | -18% |
| AAGAACTAGCACCTGC (sugars k3 d10 k3, PS) | 13% |
| AAGAACTAGTGGTTCC (sugars k3 d10 k3, PS) | 30% |
| AAGAATCCCCCCCAAG (sugars k3 d10 k3, PS) | 28% |
| AAGATTTGAGCTGCAA (sugars k3 d10 k3, PS) | -1% |
| AAGGCAAATCGCCATG (sugars k3 d10 k3, PS) | 14% |
| AATACCCTTCTGTTAA (sugars k3 d10 k3, PS) | 16% |
| AATACGACTGCTTAAA (sugars k3 d10 k3, PS) | 30% |
| AATCAGGTGAGGCTGA (sugars k3 d10 k3, PS) | -26% |
| AATCATTGGGAGTTAC (sugars k3 d10 k3, PS) | 24% |
| AATCCCTTCAGGATCA (sugars k3 d10 k3, PS) | 8% |
| AATCCCTTTACACCTC (sugars k3 d10 k3, PS) | 26% |
| AATCTAAAAGCATTGC (sugars k3 d10 k3, PS) | 30% |
| AATGGACATCTCTTCC (sugars k3 d10 k3, PS) | 27% |
| AATGTACTCAGCTTCA (sugars k3 d10 k3, PS) | 48% |
| AATTACTTCCGTTACG (sugars k3 d10 k3, PS) | 43% |
| AATTCGATCACCTTCC (sugars k3 d10 k3, PS) | 16% |

| Sequence | target mRNA inhibition |
| --- | --- |
| AATTGGTAGCTTTCAT (sugars k3 d10 k3, PS) | 64% and 81% |
| AATTTAGAGCTTCTCC (sugars k3 d10 k3, PS) | 21% |
| AATTTTTCTACCGTTT (sugars k3 d10 k3, PS) | 11% |
| ACAAAACCCCCGGAAC (sugars k3 d10 k3, PS) | -153% |
| ACAAAACGAATTCAGG (sugars k3 d10 k3, PS) | 31% |
| ACAAACTTGCCATCTA (sugars k3 d10 k3, PS) | 39% |
| ACAACAAGTAAGCCCC (sugars k3 d10 k3, PS) | -7% |
| ACAACAATTTAGAGCT (sugars k3 d10 k3, PS) | 11% |
| ACAACTCGCATCACCG (sugars k3 d10 k3, PS) | -212% |
| ACAATCACTACTCCAA (sugars k3 d10 k3, PS) | 31% |
| ACAATTACCTAAACCC (sugars k3 d10 k3, PS) | 33% |
| ACAGAAGTCTCGGGCT (sugars k3 d10 k3, PS) | 19% |
| ACAGCTAAGATAGCAG (sugars k3 d10 k3, PS) | 2% |
| ACAGCTTATGGAACTT (sugars k3 d10 k3, PS) | 27% |
| ACATATTGCCGACCTC (sugars k3 d10 k3, PS) | 43% |
| ACATATTTTGCCCCCA (sugars k3 d10 k3, PS) | 19% |
| ACATCAAGGATGTATA (sugars k3 d10 k3, PS) | -6% |
| ACCAAAGACCTCGACA (sugars k3 d10 k3, PS) | 14% |
| ACCAAAGCTGCACTGT (sugars k3 d10 k3, PS) | 15% |
| ACCAACTAAGCGAATG (sugars k3 d10 k3, PS) | -12% |
| ACCACGAACTGCTGCT (sugars k3 d10 k3, PS) | 52% |
| ACCACTCTAAGATTGT (sugars k3 d10 k3, PS) | -11% |
